Seven compounds from US5326766A, “4-(2-(4-(2-pyridinyloxy)phenyl)ethoxy)quinazoline and analogues thereof” (priority 1992, dated 1994) can be followed below.

Test [1] has as its system two spotted spider mite (Tetranychus urticae). Description: whole plant or invertebrate. Conditions: 72 h; for mortality at 50 ppm: read-out: TSSM activity (percent based on mites present in plants sprayed with solvent alone), 50 ppm, squash plants, three days after treatment; for mortality at 400 ppm: read-out: TSSM activity (percent based on mites present in plants sprayed with solvent alone), 400 ppm, squash plants, three days after treatment.

Test [2] concerns tobacco budworm (Heliothis virescens). Description: Activity against tobacco budworm. The class given is in vivo. As to conditions: Heliothis virescens, 144 h, 6 days, read-out: TBW activity (rated on live and dead larvae and size of live larvae). The method, then: (§1) The compounds identified in Table I were tested for miticidal and insecticidal activity against eight species. The following abbreviations are used in the Table III:
TBW refers to tobacco budworm
(§2) In conducting evaluations of insecticidal activity, each test compound was formulated as a 400 ppm solution, and this solution was then diluted with water to give lesser concentrations. The 400 ppm solution was prepared by combining 19.2 mL of 0.05% solution of Tween 20 (polyoxyethylene (20) sorbitan monolaurate) in water with a solution of 8 mg of the compound in 0.8 mL of acetone/EtOH (9/1).
Activity against tobacco budworm (Heliothis virescens) was evaluated as follows. A general purpose lepidoptera artificial diet was diluted to half strength with a 5% non nutritive agar. 8 mL of this diet material was dispensed into each one ounce diet cup. One hour prior to treatment 18 to 20 eggs were dispensed onto the diet surface. The cups were then sprayed with formulated material through a flat-fan nozzle. The test was run using concentrations of 400 ppm and 50 ppm. Treated cups were air dried prior to sealing with plastic caps. The cups were held for 6 days at room temperature. Activity was then rated based on the total number of live and dead larvae, and on the size of live larvae.

For test [3], the system named is Erysiphe graminis tritici (powdery mildew). Description: Foliar spray fungicide test, Erysiphe graminis tritici (powdery mildew) on wheat. Conditions: Blumeria graminis, in Triticum aestivum, foliar, read-out: ERYSGT disease control, host wheat, 400 ppm (+++: 100 ppm).
Test [4] concerns Southern corn rootworm (Diabrotica undecimpuctata howardi Barber). Nature of the test: whole plant or invertebrate. The class given is in vivo. Conditions: 400 ppm, soil concentration of 24 ppm, 3-4 days, read-out: SCRW mortality. The protocol: as §1
SCRW refers to southern corn rootworm
as §2
Activity on Southern corn rootworm (Diabrotica undecimpuctata howardi Barber) was evaluated by adding one mL of test solution containing a predetermined concentration of test compound to a cup containing a kernel of corn in 16 g of sterile soil. This produces a soil concentration of 24 ppm. After 1.5 to 2 hours of drying, five 4th instar corn rootworm larvae were added to the individual cups. Mortality was measured at 3-4 days by emptying the cup onto a pan and inspecting the soil for live rootworms.

Test [5] has as its system German cockroach (Blattella germanicus). Description: whole plant or invertebrate. The class given is in vivo. As to conditions: 240 h, ten days, read-out: GECR activity (rated on live and dead insects). The method, then: as §1
GECR refers to German cockroach
as §2
Activity against German cockroach (Blattella germanicus) was evaluated as follows. 8 mL of alfalfa based green insect diet material was dispensed into a one ounce diet cup. The cups were then sprayed with formulated material through a flat-fan nozzle. The test was run using concentrations of 400 ppm and 50 ppm. Treated cups were air dried for 24 hours and infested with five late third or early fourth instar German cockroaches. The cups were capped and held for ten days in an environmental growth chamber at a temperature of […]. Activity was then rated based on the total number of live and dead insects.

For test [6], the system named is beet armyworm (Spodoptera exiqua). Nature of the test: Activity against beet armyworm. It counts as in vivo. Conditions: Spodoptera, 144 h, 6 days, read-out: BAW activity (rated on live and dead larvae and size of live larvae). The method, then:
as §1
BAW refers to beet armyworm
as §2
Activity against beet armyworm (Spodoptera exiqua) was evaluated as follows. The test is run using concentrations of 400 ppm and 50 ppm. A general purpose lepidoptera artificial diet was diluted to half strength with a 5% non nutritive agar. 8 mL of this diet material was dispensed into one ounce diet cups. One hour prior to treatment, 35 to 40 eggs were dispensed onto the diet surface. The cups were then sprayed with formulated material through a flat-fan nozzle. Treated cups were air dried prior to sealing with plastic caps. The cups were held for 6 days at room temperature. Activity was then rated based on the total number of live and dead larvae, and on the size of live larvae.

The subject of test [7] is Pyricularia oryzae (rice blast). Description: whole plant or invertebrate. Conditions: Pyricularia oryzae, foliar, read-out: PYRIOR disease control, host rice; foliar spray; 400 ppm (+++: 100 ppm). It counts as in vivo.
In test [8] the test system is Plasmopara viticola (downy mildew). Nature of the test: Foliar spray fungicide test, Plasmopara viticola (downy mildew) on grape. As to conditions: for pest or weed control at 400 µg/mL: Plasmopara viticola, foliar, read-out: PLASVI disease control.
Experimental: (§3) The test compounds were formulated for application by dissolving 50 mg of the compound into 1.25 ml of solvent. The solvent was prepared by mixing 50 ml of "Tween 20" (polyoxyethylene (20) sorbitan monolaurate emulsifier) with 475 ml of acetone and 475 ml of ethanol. The solvent/compound solution was diluted to 125 ml with deionized water. The resulting formulation contains 400 ppm test chemical. Lower concentrations were obtained by serial dilution with the solvent-surfactant mixture.
(§4) The formulated test compounds were applied by foliar spray.
(§5) The formulated technical compounds were sprayed on all foliar surfaces of the host plants to past run-off. Single pots of each host plant were placed on raised, revolving pedestals in a fume hood. Test solutions were sprayed on all foliar surfaces. All treatments were allowed to dry and the plants were inoculated with the appropriate pathogens within 24 hours.
(§6) The effectiveness of test compounds in controlling disease was rated using the following scale.
Test [9] deals with Puccinia recondita tritici (leaf rust). Description: Foliar spray fungicide test, Puccinia recondita tritici (leaf rust) on wheat. Conditions: Puccinia recondita, in Triticum aestivum, foliar, read-out: PUCCRT disease control, host wheat, 400 ppm (+++: 100 ppm).
Experimental: as §3
The formulated test compounds were applied by foliar spray. The following plant pathogens and their corresponding plants were employed.
Puccinia recondita PUCCRT wheat
as §5, §6
Test [10] concerns cotton aphid (Aphis gossypii). Nature of the test: whole plant or invertebrate. As to conditions: 72 h; for mortality at 50 ppm: read-out: CA activity (percent based on aphids present in plants sprayed with solvent alone), 50 ppm, squash plants, three days after treatment; for mortality at 400 ppm: read-out: CA activity (percent based on aphids present in plants sprayed with solvent alone), 400 ppm, squash plants, three days after treatment.

The test system of test [11] is aster leafhopper (Macrosteles fascifrons). Description: whole plant or invertebrate. It counts as in vivo. As to conditions: Macrosteles fascifrons, 24 h, read-out: ALH percent mortality. The protocol: as §1
ALH refers to aster leafhopper
as §2
Activity against aster leafhopper (Macrosteles fascifrons) was tested as follows. The test was run using concentrations of 400 ppm and 50 ppm. One ounce plastic cups containing a cotton wick was sprayed with 0.4 mL of formulated material using a flat-fan nozzle. The excess moisture was allowed to evaporate. Then five to ten carbon dioxide anesthetized adult leafhoppers were added to each cup. The cups were capped and held at room temperature for 24 hours. Percent mortality was then determined.

The subject of test [12] is Leptosphaeria nodorum (glume blotch). Nature of the test: Foliar spray fungicide test, Leptosphaeria nodorum (glume blotch) on wheat. As to conditions: Parastagonospora nodorum, in Triticum aestivum, foliar, read-out: LETPNO disease control, host wheat, 400 ppm (+++: 100 ppm).
Experimental: as §3, §4, §5, §6

Turning to `Fc1cc(C(F)(F)F)cnc1Oc1ccc(CCOc2ncnc3cccc(F)c23)cc1` [Compound 7], the mortality at 50 ppm came out at 100% in test [1], 0% in test [5], 100% in test [10] and 100% in test [11]. The mortality at 400 ppm in test [1] came out at 100%; in [5], 0%; in test [10] it was 100%; in [11], 80%. The pest or weed control at 50 ppm in test [2] and in test [6] was 100% in each case. Further, the pest or weed control at 400 ppm in test [2] and in test [6] was 100% each time. In addition, the pest or weed control at 400 µg/mL in test [3], in [7], in [8], in test [9] and in [12] was 0 to 19% in each case. Besides, the mortality at 24 ppm in test [4] is 0%.
As to `COc1cc(C(Cl)(Cl)Cl)cc(Oc2ccc(CCNc3ncnc4c(F)cccc34)cc2)n1` [Compound 35], the mortality at 50 ppm in [1], in test [10] and in [11] was 0% in each case. Besides, the mortality at 400 ppm in test [1] was determined as 0%; in [5], 0%; in test [10], 0%; in test [11], 80%. Further, the pest or weed control at 50 ppm was 0% in test [2] and 100% in test [6]. The values for the pest or weed control at 400 ppm in test [2] and in [6] were 80% and 100%, respectively. Besides, the pest or weed control at 400 µg/mL in [3] was 0 to 19%; in [7] it was 0 to 19%; in test [8], 0 to 19%; in [9] it was 90 to 100%; in [12], 0 to 19%. Moreover, the mortality at 24 ppm in [4] is 0%.
For `Fc1cc(C(F)(F)F)cnc1Oc1ccc(CCNc2ncnc3c(F)cccc23)cc1` [Compound 6], the mortality at 50 ppm came out at 0% in test [1], 40% in [5], 0% in [10] and 100% in test [11]. For the same compound, the mortality at 400 ppm in test [1] was 0%; in test [5], 20%; in test [10], 0%; in test [11] it was 100%. For the same compound, the pest or weed control at 50 ppm in test [2] and in [6] was 100% in each case. In addition, the pest or weed control at 400 ppm in test [2] and in test [6] was 100% throughout. Further, the pest or weed control at 400 µg/mL in test [3], in test [7], in test [8], in test [9] and in test [12] was 90 to 100% each time. Also, the mortality at 24 ppm in test [4] was found to be 0%.
`Fc1cc(C(F)(F)F)cnc1Oc1ccc(CCOc2ncnc3c(F)cccc23)cc1` [Compound 5]: the mortality at 400 ppm in test [1], in [5], in test [10] and in [11] was 100% throughout. The pest or weed control at 400 ppm in test [2] and in test [6] was 100% each time. The pest or weed control at 400 µg/mL in test [3] was 90 to 100%; in test [7] it was 90 to 100%; in [8], 90 to 100%; in test [9], 90 to 100%; in [12] it was 0 to 19%. The mortality at 24 ppm in test [4] is 100%.
In the case of `Fc1cccc2c(OCCc3ccc(Oc4ncc(Cl)cc4Cl)cc3)ncnc12` [Compound 41], the mortality at 400 ppm in [1], in test [10] and in test [11] was 100% in each case. In addition, the pest or weed control at 400 ppm in [2] and in [6] was 100% each time. Also, the pest or weed control at 400 µg/mL in test [3] lay in the range of 90 to 100%; in test [7], 90 to 100%; in [9], 90 to 100%; in [12], 20 to 89%. Moreover, the PLASVI disease control entry in test [8] (host grape, foliar spray, 400 ppm (+++: 100 ppm)) was “++ +”.
On to `Fc1cccc2ncnc(OCCc3ccc(Oc4nc(Cl)c(Cl)cc4Cl)cc3)c12` [Compound 43], for which the mortality at 50 ppm in [1], in test [5], in test [10] and in test [11] was 0% throughout. Moreover, the mortality at 400 ppm in test [1], in test [5], in test [10] and in [11] was 0% in each case. Further, the pest or weed control at 50 ppm in [2] and in test [6] was 0% each time. Further, the pest or weed control at 400 ppm in [2] and in test [6] was 0% in each case. Besides, the pest or weed control at 400 µg/mL in [3], in test [7], in test [9] and in test [12] was 0 to 19% in each case. In [4], the mortality at 24 ppm came to 0%.
For `FC(F)(F)c1ccnc(Oc2ccc(CCOc3ncnc4ccccc34)cc2)c1` [Compound 13], the mortality at 400 ppm in [1], in test [10] and in test [11] was 100% each time. Also, the pest or weed control at 400 ppm in test [2] and in test [6] was 100% each time. Also, the pest or weed control at 400 µg/mL fell in the range of 90 to 100% in [3]; 20 to 89% in test [7]; 90 to 100% in test [8]; 90 to 100% in [9]; 90 to 100% in [12].
